Experimental data from US7884107B2, “Substituted piperidines that increase P53 activity and the uses thereof” (Merck, priority 2006, dated 2011).

Target: HDM2 protein (Homo sapiens, UniProt Q00987)
Experiment: fluorescence polarization screening assay (FP)
Type: binding
Conditions: inhibitory concentration that achieves 50% of maximal activity

Chain of HDM2 protein (Q00987 whole entry): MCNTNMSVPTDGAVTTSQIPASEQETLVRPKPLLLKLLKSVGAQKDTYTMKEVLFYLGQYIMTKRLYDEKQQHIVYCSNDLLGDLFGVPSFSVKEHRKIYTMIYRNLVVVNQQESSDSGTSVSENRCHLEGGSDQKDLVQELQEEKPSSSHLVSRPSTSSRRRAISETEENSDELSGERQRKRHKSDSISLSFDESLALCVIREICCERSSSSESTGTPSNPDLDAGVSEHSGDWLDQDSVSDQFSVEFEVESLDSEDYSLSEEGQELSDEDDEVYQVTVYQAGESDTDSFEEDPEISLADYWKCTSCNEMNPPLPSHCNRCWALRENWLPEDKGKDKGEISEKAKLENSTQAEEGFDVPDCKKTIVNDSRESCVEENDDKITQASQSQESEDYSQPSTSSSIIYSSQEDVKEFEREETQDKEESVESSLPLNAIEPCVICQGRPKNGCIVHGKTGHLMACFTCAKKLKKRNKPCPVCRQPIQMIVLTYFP

SMILES	IC50
CC(=O)Nc1ccccc1N1CCN(C(=O)C2(Oc3ccc(Br)c(F)c3)CCCN(C(=O)c3cnccc3C(F)(F)F)C2)CC1 (centres unmarked) [AU]	510 nM
COc1ccccc1N1CCN(C(=O)C2(Oc3ccc(C(F)(F)F)cc3)CCCN(C(=O)c3cnccc3C(F)(F)F)C2)C(C(=O)NCCO)C1 (centres unmarked) [CR]	950 nM
